Measured values: patent US3978035A, “13-Norleucine-14-desamido motilin, a method for preparing it and an agent containing it” (Max-Planck-Gesellschaft zur Forderung der Wissenschaften …, priority 1973, dated 1976)
Where a SMILES comes first, the peptide text is derived from it. [ ]: non-standard residue; d: D form. Nle = CCCC[C@H](N)C(=O)O

Assay: biological activity in comparison with natural motilin
Settings: after purification on ion exchangers; relative to naturally occurring motilin (method reference: J. C. Brown et al.)

Compound	biological activity in comparison with natural motilin
CCCC[C@H](NC(=O)[C@H](CCCNC(=N)N)NC(=O)[C@H](CCC(N)=O)NC(=O)[C@H](CC(C)C)NC(=O)[C@H](CCC(=O)O)NC(=O)CNC(=O)[C@H](Cc1ccc(O)cc1)NC(=O)[C@@H](NC(=O)[C@H](Cc1ccccc1)NC(=O)[C@@H](NC(=O)[C@@H]1CCCN1C(=O)[C@@H](NC(=O)[C@@H](N)Cc1ccccc1)C(C)C)[C@@H](C)CC)[C@@H](C)O)C(=O)N[C@@H](CCC(=O)O)C(=O)N[C@@H](CCC(=O)O)C(=O)N[C@@H](CCCCN)C(=O)N[C@@H](CCC(=O)O)C(=O)N[C@@H](CCCNC(=N)N)C(=O)N[C@@H](CC(N)=O)C(=O)N[C@@H](CCCCN)C(=O)NCC(=O)N[C@@H](CCC(N)=O)C(=O)O [13-norleucine-14-desamido-motilin] (H-FVPIFTYGELQR[Nle]EEKERNKGQ-OH)	above 90%
CCCC[C@H](NC(=O)[C@H](CCCNC(=N)N)NC(=O)[C@H](CCC(N)=O)NC(=O)[C@H](CC(C)C)NC(=O)[C@H](CCC(=O)O)NC(=O)CNC(=O)[C@H](Cc1ccc(O)cc1)NC(=O)[C@@H](NC(=O)[C@H](Cc1ccccc1)NC(=O)[C@@H](NC(=O)[C@@H]1CCCN1C(=O)[C@@H](NC(=O)[C@@H](N)Cc1ccccc1)C(C)C)[C@@H](C)CC)[C@@H](C)O)C(=O)N[C@@H](CCC(=O)O)C(=O)N[C@@H](CCC(=O)O)C(=O)N[C@@H](CCCCN)C(=O)N[C@@H](CCC(=O)O)C(=O)N[C@@H](CCCNC(=N)N)C(=O)N[C@@H](CC(N)=O)C(=O)N[C@@H](CCCCN)C(=O)NCC(=O)N[C@@H](CCC(N)=O)C(=O)O [C1 -fraction] (H-FVPIFTYGELQR[Nle]EEKERNKGQ-OH)	over 90%
